Legend:
[1] = tested on: Aeromonas hydrophila subsp. hydrophila ATCC 7966; test: Inhibition of Aeromonas hydrophila ATCC 7966 CphA expressed in Escherichia coli LMG194 at 50 uM using CPC-1 as substrate preincubated for 10 mins followed by substrate addition by fluorescence assay relative to control
[2] = Inhibition of Aeromonas hydrophila ATCC 7966 beta-lactamase L1 expressed in Escherichia coli LMG194 using CPC-1 as substrate preincubated for 10 mins followed by substrate addition by fluorescence assay; parameters: species or system Aeromonas hydrophila subsp. hydrophila ATCC 7966
[3] = Inhibition of Aeromonas hydrophila ATCC 7966 IMP1 expressed in Escherichia coli LMG194 using FC3 as substrate preincubated for 10 mins followed by substrate addition by fluorescence assay; parameters: species or system Aeromonas hydrophila subsp. hydrophila ATCC 7966
[4] = Inhibition of Aeromonas hydrophila ATCC 7966 CphA expressed in Escherichia coli LMG194 using CPC-1 as substrate preincubated for 10 mins followed by substrate addition by fluorescence assay; parameters: species or system Aeromonas hydrophila subsp. hydrophila ATCC 7966
[5] = Inhibition of Aeromonas hydrophila ATCC 7966 IMP1 expressed in Escherichia coli LMG194 using CPC-1 as substrate preincubated for 10 mins followed by substrate addition by fluorescence assay; parameters: species or system Aeromonas hydrophila subsp. hydrophila ATCC 7966
[6] = Inhibition of Aeromonas hydrophila ATCC 7966 NDM1 expressed in Escherichia coli LMG194 using FC3 as substrate preincubated for 10 mins followed by substrate addition by fluorescence assay; parameters: species or system Aeromonas hydrophila subsp. hydrophila ATCC 7966
[7] = Inhibition of Aeromonas hydrophila ATCC 7966 beta-lactamase L1 expressed in Escherichia coli LMG194 using FC3 as substrate preincubated for 10 mins followed by substrate addition by fluorescence assay; parameters: species or system Aeromonas hydrophila subsp. hydrophila ATCC 7966
[8] = Inhibition of Aeromonas hydrophila ATCC 7966 NDM1 expressed in Escherichia coli LMG194 using CPC-1 as substrate preincubated for 10 mins followed by substrate addition by fluorescence assay; parameters: species or system Aeromonas hydrophila subsp. hydrophila ATCC 7966
[9] = Inhibition of Aeromonas hydrophila ATCC 7966 CphA expressed in Escherichia coli LMG194 using imipenem as substrate; parameters: species or system Aeromonas hydrophila subsp. hydrophila ATCC 7966

`O=c1c2ccccc2[se]n1-c1ccccc1` showed an inhibition [1] of less than 50%.

`OCC(S)CS` (stereo not given) [DIMERCAPROL] showed an IC50 [2] of 5 µM, an IC50 [3] of 6.2 µM and an IC50 [4] of 7.8 µM. For the same molecule, the IC50 [5] was 7.1 µM, the IC50 [6] was 1 µM and the IC50 [7] was 2.6 µM. The inhibition [1] was greater than 80% and the IC50 [8] was 1.5 µM.

`O=C(O)c1cccc(C(=O)O)n1` [DIPICOLINIC ACID] showed an IC50 [9] of 88.4 µM, an IC50 [3] of 29.4 µM and an IC50 [4] of 61.5 µM. For the same molecule, the IC50 [5] was 23.6 µM, the IC50 [6] was 6.2 µM and the IC50 [8] was 8.8 µM.
